Results taken from patent publication US20180256460A1, “STAIN-REMOVING ORAL COMPOSITION” (LOTTE CO., LTD., priority 2014, published 2018).
Entries after “also recorded” stand apart in the source; their conditions may differ.

Legend:
[1] = Stain-removing effect of saliva solutions containing chewing gum components, color difference of stained hydroxyapatite discs; details: for Stain-removing effect of the acidulant itself: color difference: 0.1% in saliva solution, pH 6, compared to the saliva alone (pH 7), FIG. 3A, n=5, p<0.05
Description: Each research volunteer was asked to masticate one tablet of salivary gum (Morita Corporation), and about 30 ml of the saliva was collected respectively. The collected saliva was all combined in one container (beaker) so that personal information could not be traced. The collected saliva was centrifuged at 2,500×g for 10 minutes, and the supernatant was used as a saliva sample for a solvent in a testing solution.
The amount of the saliva collected when masticating 2 tablets of gum for 5 minutes was 15 ml on average. The sugar alcohol or acidulant was dissolved under stirring in a weight ratio corresponding to 2 tablets of the sample chewing gum into 15 ml of the saliva sample processed with the procedure of 2. That is, to 15 ml of a saliva sample, 2.31 g (15.4%) of the sugar alcohol or 15 mg (0.1%) of the acidulant was added and dissolved. Sodium metaphosphate was dissolved under stirring in an amount needed for each testing. For pH adjustment, an aqueous solution of hydrochloric acid or sodium hydroxide was used.
3% green tea extract, 1% black tea extract, and 1% instant coffee were dissolved under stirring in mineral water at 100° C. to obtain a staining liquid (instant coffee; Ajinomoto General Foods, Inc., mineral water; Suntory Foods Limited).
Hydroxyapatite discs (10 mm×10 mm, APP-100, HOYA Corporation) the surfaces of which were uniformly polished with a P400 waterproof abrasive paper were used as human enamel models. The hydroxyapatite discs after polishing were subjected to color measurement by the method of 6. as mentioned below to obtain reference values for the discs. The hydroxyapatite discs were separately put in a 12-well plate (IWAKI&Co., Ltd.) and immersed in 2.5 ml of the saliva sample and allowed to stand still at 37° C. for 2 hours so that saliva pellicles were formed on the surface. The discs were washed with water, and immersed in 2.5 ml of the staining liquid each added in each well of a fresh 12-well plate, and moderately shook at 37° C. for 24 hours so that stains were formed. The hydroxyapatite discs after staining were subjected to color measurement by the method in 6. mentioned below to obtain measurement values after staining. Hydroxyapatite discs after staining subjected to color measurement were placed in a fresh 12-well plate, and 2.5 ml of the saliva sample, the saliva solution containing chewing gum components, or the chewing gum extract solution was dispensed in each well, then the discs were immersed for 5 minutes or 35 minutes. The immersed discs were washed with distilled water, and extra water was wiped off with paper to dry the discs, followed by color measurement.
A spectrophotometer (CM-700d, Konica Minolta, Inc.) was set upright so that the colorimetric direction was upward. Hydroxyapatite discs before the pellicle formation, after staining or after the solution treatment were allowed to stand still above the colorimetric light source, and color measurements were performed 3 times successively, and the average value was employed. Color measurements were performed on the L*axis (lightness), the a*axis (chroma: red-green axis), and the b*axis (chroma: yellow-blue axis) of the L*a*b*color space based on JIS Z 8722:2009, under the condition of SCI including reflected light. […] E*ab was calculated according to the following expressions. […]

[2] = aqueous system; cited from earlier work

## O=C(O)CC(O)(CC(=O)O)C(=O)O [citric acid]
[1]
  Stain-removing effect of the acidulant itself: color difference: a decrease in the color difference was observed

## O=C(O)CC(O)C(=O)O (centres unmarked) [malic acid]
[1]
  Stain-removing effect of the acidulant itself: color difference: a decrease in the color difference was observed

## O=P(=O)O [metaphosphoric acid]
[2]
  pKa: as small as not measurable in an aqueous system

## sodium metaphosphate
[1]; 0.066% or 0.2% in the saliva, compared to the saliva alone, FIG. 1, n=6, p<0.05
  Stain-removing effect: color difference of stained hydroxyapatite discs: a significant difference was observed compared to the case where the discs were treated with the saliva alone; also recorded: a significant decrease in the color difference was observed
[1]; saliva with 0.1% sodium metaphosphate, pH 5 compared to pH 7, FIG. 3C, n=6, p<0.05
  Influence of pH on stain removal: transition of the color difference: a significant difference in the transition of the color difference was observed
